Measurements taken from the NIST ThermoML archive (doi:10.1021/je0500330).
Numbers after ± are expanded uncertainties.

Experiments:
[1] = xn = mol fraction of the nth substance listed; conditions: 298.15 K, 101.3 kPa, Liquid
[2] = refractive index (Na D-line) (dimensionless); xn = mol fraction of the nth substance listed; conditions: 298.15 K, 101.3 kPa, Liquid
[3] = refractive index (Na D-line) (dimensionless); conditions: 298.15 K; 101.33 kPa; Liquid; Standard Abbe refractometry
[4] = Liquid; for speed of sound / mass density: 298.15 K, 101.33 kPa; for speed of sound: Sing-around technique in a fixed-path interferometer; for mass density: Vibrating tube method

CCC(C)CO (centres undefined) [2-methyl-1-butanol] + CCO
Conditions | mass density, [1] [kg/m3] | refractive index, [2] | speed of sound, [1] [m/s]
x2 = 0.0486 | 814.11 ± 0.45 | 1.40734 ± 0.00063 | 1247.7 ± 2.2
x2 = 0.1013 | 813.23 ± 0.45 | 1.40583 ± 0.00063 | 1245 ± 2.2
x2 = 0.1523 | 812.31 ± 0.45 | 1.40424 ± 0.00063 | 1241.4 ± 2.2
x2 = 0.1987 | 811.39 ± 0.45 | 1.40277 ± 0.00063 | 1237.6 ± 2.2
x2 = 0.2503 | 810.38 ± 0.46 | 1.40112 ± 0.00063 | 1233.6 ± 2.2
x2 = 0.3004 | 809.33 ± 0.46 | 1.39926 ± 0.00063 | 1229.6 ± 2.2
x2 = 0.3486 | 808.22 ± 0.46 | 1.39756 ± 0.00063 | 1225.3 ± 2.2
x2 = 0.4003 | 807.02 ± 0.46 | 1.39549 ± 0.00063 | 1221 ± 2.2
x2 = 0.4502 | 805.74 ± 0.47 | 1.39341 ± 0.00063 | 1215.9 ± 2.2
x2 = 0.5004 | 804.41 ± 0.47 | 1.3912 ± 0.00063 | 1210.5 ± 2.2
x2 = 0.5502 | 803.01 ± 0.47 | 1.38899 ± 0.00063 | 1205.4 ± 2.2
x2 = 0.6004 | 801.43 ± 0.48 | 1.38636 ± 0.00064 | 1199.4 ± 2.2
x2 = 0.6503 | 799.81 ± 0.48 | 1.38373 ± 0.00064 | 1193.1 ± 2.2
x2 = 0.7 | 798.1 ± 0.48 | 1.38109 ± 0.00064 | 1186.9 ± 2.2
x2 = 0.8009 | 794.32 ± 0.49 | 1.37475 ± 0.00064 | 1173 ± 2.2
x2 = 0.8503 | 792.34 ± 0.5 | 1.37134 ± 0.00064 | 1166 ± 2.2
x2 = 0.9002 | 790.13 ± 0.5 | 1.36758 ± 0.00065 | 1158.2 ± 2.1
x2 = 0.9503 | 787.77 ± 0.51 | 1.36358 ± 0.00065 | 1150.2 ± 2.1

CCO [ethanol]
Conditions | mass density [kg/m3] | refractive index | speed of sound [m/s]
[3] | – | 1.35916 ± 0.00032 | –
[4] | 785.36 ± 0.23 | – | 1143 ± 2

Conditions | vapor or sublimation pressure [kPa]
[4], 351.5 K | 101.3 ± 3

CCC(C)CO (centres undefined) [2-methyl-1-butanol]
Conditions | mass density [kg/m3] | refractive index | speed of sound [m/s]
[3] | – | 1.40872 ± 0.14 | –
[4] | 814.87 ± 0.2 | – | 1253 ± 2

[4]
Conditions | vapor or sublimation pressure [kPa]
401.58 K | 101.3 ± 3
401.86 K | 101.3 ± 3

CO [methanol]
Conditions | mass density [kg/m3] | refractive index | speed of sound [m/s]
[3] | – | 1.32667 ± 0.00033 | –
[4] | 787.14 ± 0.14 | – | 1102 ± 2

Conditions | vapor or sublimation pressure [kPa]
[4], 337.65 K | 101.3 ± 3

CCC(C)CO (centres undefined) [2-methyl-1-butanol] + CO
Conditions | mass density, [1] [kg/m3] | refractive index, [2] | speed of sound, [1] [m/s]
x2 = 0.0485 | 814.3 ± 0.45 | 1.40702 ± 0.00063 | 1250.7 ± 2.2
x2 = 0.1016 | 813.63 ± 0.44 | 1.40511 ± 0.00063 | 1246.7 ± 2.2
x2 = 0.1543 | 812.9 ± 0.44 | 1.40324 ± 0.00063 | 1242.6 ± 2.2
x2 = 0.1987 | 812.22 ± 0.44 | 1.40162 ± 0.00063 | 1238.7 ± 2.2
x2 = 0.2528 | 811.35 ± 0.44 | 1.39907 ± 0.00063 | 1233.9 ± 2.2
x2 = 0.3017 | 810.5 ± 0.44 | 1.39712 ± 0.00063 | 1229 ± 2.2
x2 = 0.3496 | 809.49 ± 0.45 | 1.39461 ± 0.00063 | 1223 ± 2.2
x2 = 0.4005 | 808.36 ± 0.45 | 1.39181 ± 0.00063 | 1217 ± 2.2
x2 = 0.4506 | 807.25 ± 0.45 | 1.38875 ± 0.00064 | 1210.7 ± 2.2
x2 = 0.4987 | 806.12 ± 0.45 | 1.38569 ± 0.00064 | 1204.2 ± 2.2
x2 = 0.5502 | 804.84 ± 0.45 | 1.38222 ± 0.00064 | 1197.2 ± 2.2
x2 = 0.6003 | 803.4 ± 0.45 | 1.37832 ± 0.00064 | 1188.8 ± 2.1
x2 = 0.6487 | 801.91 ± 0.45 | 1.37416 ± 0.00065 | 1180.7 ± 2.1
x2 = 0.7003 | 800.27 ± 0.45 | 1.36946 ± 0.00065 | 1171.5 ± 2.1
x2 = 0.7504 | 798.44 ± 0.46 | 1.3642 ± 0.00066 | 1162.7 ± 2.1
x2 = 0.8002 | 796.5 ± 0.46 | 1.35846 ± 0.00067 | 1151.4 ± 2.1
x2 = 0.8503 | 794.35 ± 0.46 | 1.35214 ± 0.00068 | 1142.2 ± 2.1
x2 = 0.9004 | 791.96 ± 0.47 | 1.34482 ± 0.0007 | 1131.5 ± 2.1
x2 = 0.9503 | 789.39 ± 0.47 | 1.33618 ± 0.00071 | 1120.5 ± 2.1
